{"source": "patent US20130237610A1", "about": "“DYNAMIC BALANCING OF AUTONOMIC NERVOUS SYSTEM THROUGH VITAMIN MK-7” (priority 2010, published 2013)", "key": {"rats": {"system": "rats", "assay": "Chronic toxicity study, ECG of rats", "format": "in vivo", "conditions": "rat ECG", "source_text": "In another study on animal model during chronic toxicity study, it was discovered that MK-7 produces significant changes in ECG of rats. This discovery during basic pharmacology studies on MK-7 was investigated for its effect on Cardio Vascular System. It is during this study the investigator discovered the following findings (FIGS. 5 and 6).\nThe main parameter which was observed during chronic toxicity studies in rat ECG was the prolongation of QT interval."}, "ISO injected rats": {"system": "ISO injected rats", "assay": "Isoproterenol (ISO) induced cardiac injury model", "format": "in vivo, rat", "method": "During the yet another study conducted to assess the cardioprotective effect of vitamin K2-7, inventors of the current invention observe that the vitamin K2-7 improves the cardiac output parameters. Isoproterenol (ISO) induced cardiac injury model was selected for the study. It was observed that ISO induced cardiac output decrease in all the dose levels i.e. at 90 μg/kg, 450 μg/kg and 900 μg/kg. […] This effects was non-linear and was enhanced in 900 μg/kg dose.\nEffect of vitamin K2-7 on the left cardiac work has been evaluated in the same study. It was observed that administration of ISO leads to marked decrease in left cardiac work when measured 48 h after ISO injection in comparison to pre ISO level i.e. control.\nIn the same study it was also observed that vitamin K2-7 enhances the High Density Lipoprotein (HDL) level in all the dose levels studied i.e. at 90 μg/kg, 450 μg/kg and 900 μg/kg. Isoproterenol (ISO) induced cardiac injury model was selected for the study. […] HDL cholesterol level for the treated group increased in comparison to the ISO controlled group. The observed increase was greater with respect to the dose level increased."}, "healthy male volunteers": {"system": "healthy male volunteers", "assay": "ANS activity (sympathovagal balance) measured by ANSiscope in healthy male volunteers", "format": "in vivo, human", "conditions": "for general and systemic examination, Blood Pressure (Supine), pulse: 350 μg per day, 2 months; for percentage of ANS dysfunction / stage of ANS dysfunction: 1 cap per day of 350 μg, end of 2 months", "method": "[…] ANS activity was measured and printed out in a graph form by the ANSiscope™, manufactured by DyAnsys a US based company. The instrument is US FDA approved patented instrument. This instrument assessed the autonomic function by calculating 500 Heart beats/RR intervals. After assessing this, the instrument will analyze the level of the dysfunction and the degree of autonomic neuropathy. For this reason they have classified autonomic dysfunction in 5 stages, namely Healthy (H), Early (E), Late (L), Advanced (A) and Most Advanced (MA). The percentage calculation values demarcating groups are: −11.5% to 11.5%: healthy group, 13.5% to 20%: early group, 23% to 50.99%: late group, 51% to 100%: advanced group and above falls in Most advance group.\nThe study parameters assessed were sympathetic and parasympathetic tone, change in blood pressure (orthostatic intolerance, measured at right. brachial artery), pulse (assessed by measuring the pulse at right. radial artery) and physical and general examination. Study was performed on subjects in relaxed supine position without any external stimulation, usually 2 hrs. after breakfast during morning time for 2 consecutive months.\nSubjects who have Blood pressure beyond the range of 140/90 (supine) and 100/70 (standing) mm Hg, and Sugar Fasting more than 250 mg % and with any major illness are ruled out of study. All subjects were checked for baseline parameters on 0 day. Vitamin K2-7 (MK-7) in dose of 350 μg was administered on 3rd day after the baseline reading. MK-7 was continued for 2 months. Readings were taken on 3rd day, 15th day, 28st day, 50th day, 56th day and at 62nd day."}}, "data": [{"smiles": "CC(C)=CCC/C(C)=C/CC/C(C)=C/CC/C(C)=C/CC/C(C)=C/CC/C(C)=C/CC/C(C)=C/CC1=C(C)C(=O)c2ccccc2C1=O", "note": "[MK-7]", "values": [{"measurement": "PR interval", "setting": "rats", "value": "not affected to significant extent"}, {"measurement": "QTc change", "setting": "rats", "value": "moderate non-significant shortening"}, {"measurement": "heart rate", "setting": "rats", "value": "no increase"}, {"measurement": "prolongation of QTc", "setting": "rats", "value": "did not cause any prolongation"}, {"measurement": "QT interval", "setting": "rats; 100, 500, 1000 μg/kg", "value": "remained unaffected"}, {"measurement": "QRS interval", "setting": "rats; 500, 1000 μg/kg", "value": "significant shortening"}, {"measurement": "RR interval", "setting": "rats; 500, 1000 μg/kg", "value": "significant prolongation"}, {"measurement": "ISO induced cardiac output decrease", "setting": "ISO injected rats; 90 μg/kg and 450 μg/kg", "value": "reversed"}, {"measurement": "ISO induced cardiac output decrease", "setting": "ISO injected rats; 900 μg/kg", "value": "enhanced"}, {"measurement": "ISO induced left cardiac work decrease, reversal", "setting": "ISO injected rats; 900 μg/kg vs other treatment groups", "value": "higher than other treatment groups"}, {"measurement": "ISO induced left cardiac work decrease", "setting": "ISO injected rats; 90, 450 and 900 μg/kg, 48 h after ISO injection, vs ISO control", "value": "reversed to a great extent"}, {"measurement": "HDL cholesterol level", "setting": "ISO injected rats; 90, 450 and 900 μg/kg, vs ISO control group", "value": "increased"}, {"measurement": "blood sugar", "setting": "ISO injected rats; within 12 days, 90, 450 and 900 μg/kg", "value": "reducing blood sugar"}, {"measurement": "other parameters (blood pressure, pulse, physical and general examination)", "setting": "healthy male volunteers; 350 μg for 2 months", "value": "remained unaffected"}, {"measurement": "general and systemic examination, Blood Pressure (Supine), pulse", "setting": "healthy male volunteers; person one", "value": "in normal range without any change from base line records"}, {"measurement": "general and systemic examination, Blood Pressure (Supine), pulse", "setting": "healthy male volunteers; person two", "value": "in normal range without any change from base line records"}, {"measurement": "parasympathetic activity", "setting": "healthy male volunteers; 350 μg, after 2 months of therapy", "value": "little effect"}, {"measurement": "sympathetic activity", "setting": "healthy male volunteers; 350 μg, after 2 months of therapy, initially elevated", "value": "marked normalization"}, {"measurement": "percentage of ANS dysfunction", "setting": "healthy male volunteers; person one, baseline 61%", "value": 31, "unit": "%"}, {"measurement": "stage of ANS dysfunction", "setting": "healthy male volunteers; person one, baseline 'Advance stage'", "value": "Early (13.5% to 20%: early group)"}, {"measurement": "percentage of ANS dysfunction", "setting": "healthy male volunteers; person two, baseline 25%", "value": 21, "unit": "%"}, {"measurement": "stage of ANS dysfunction", "setting": "healthy male volunteers; person two, baseline 'Late stage'", "value": "Early (13.5% to 20%: early group)"}]}]}
